Data as given in PubChem BioAssay AID248 (DTP/NCI, 2004).
“And” between values parts separate entries of the source, which are not always exact repeats. Equal values may be shown once. Inconclusive results and toxic doses are left out. No stated cut-off is given here; in the data, active means T/C of 150% or more; inactive means T/C below 125%.

Tested on: L1210 leukemia ip in BDF1 mice, survival T/C
Test: NCI In Vivo Anticancer Drug Screen. Data for tumor model L1210 Leukemia (intraperitoneal) in B6D2F1 (BDF1) mice
Conditions: endpoint: mean survival time, higher = longer survival
In short: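 In this screen, tumor-bearing mice given compound are compared to those given vehicle, and their survival values are reported as a treated-to-control quotient.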

[1] = dose: 100.0 mg/kg/injection, schedule: Q04DX003 (ip), vehicle: saline with Tween-80
[2] = dose: 200.0 mg/kg/injection, schedule: Q04DX003 (ip), vehicle: saline with Tween-80
[3] = dose: 400.0 mg/kg/injection, schedule: Q04DX002 (ip), vehicle: saline with Tween-80
[4] = dose: 400.0 mg/kg/injection, schedule: Q04DX003 (ip), vehicle: saline with Tween-80
[5] = dose: 100.0 mg/kg/injection, schedule: Q01DX001 (ip), vehicle: saline
[6] = dose: 200.0 mg/kg/injection, schedule: Q01DX001 (ip), vehicle: saline
[7] = dose: 400.0 mg/kg/injection, schedule: Q01DX001 (ip), vehicle: saline
[8] = dose: 100.0 mg/kg/injection, schedule: Q01DX009 (ip), vehicle: Klucel (hydroxypropylcellulose) (HPC)
[9] = dose: 100.0 mg/kg/injection, schedule: Q04DX002 (ip), vehicle: Klucel (hydroxypropylcellulose) (HPC)
[10] = dose: 100.0 mg/kg/injection, schedule: Q04DX003 (ip), vehicle: Klucel (hydroxypropylcellulose) (HPC)
[11] = dose: 200.0 mg/kg/injection, schedule: Q01DX009 (ip), vehicle: Klucel (hydroxypropylcellulose) (HPC)
[12] = dose: 200.0 mg/kg/injection, schedule: Q04DX002 (ip), vehicle: Klucel (hydroxypropylcellulose) (HPC)
[13] = dose: 200.0 mg/kg/injection, schedule: Q04DX003 (ip), vehicle: Klucel (hydroxypropylcellulose) (HPC)
[14] = dose: 400.0 mg/kg/injection, schedule: Q01DX009 (ip), vehicle: Klucel (hydroxypropylcellulose) (HPC)
[15] = dose: 400.0 mg/kg/injection, schedule: Q04DX002 (ip), vehicle: Klucel (hydroxypropylcellulose) (HPC)
[16] = dose: 50.0 mg/kg/injection, schedule: Q01DX009 (ip), vehicle: saline
[17] = dose: 100.0 mg/kg/injection, schedule: Q01DX009 (ip), vehicle: saline
[18] = dose: 100.0 mg/kg/injection, schedule: Q04DX003 (ip), vehicle: saline
[19] = dose: 200.0 mg/kg/injection, schedule: Q04DX003 (ip), vehicle: saline
[20] = dose: 400.0 mg/kg/injection, schedule: Q04DX003 (ip), vehicle: saline
[21] = dose: 75.0 mg/kg/injection, schedule: Q01DX001 (ip), vehicle: carboxymethylcellulose (CMC)
[22] = dose: 150.0 mg/kg/injection, schedule: Q01DX001 (ip), vehicle: carboxymethylcellulose (CMC)
[23] = dose: 200.0 mg/kg/injection, schedule: Q01DX009 (ip), vehicle: saline
[24] = dose: 400.0 mg/kg/injection, schedule: Q01DX009 (ip), vehicle: saline

Measured: T/C

CCCCC(CC)COc1nc(OCC(CC)CCCC)nc(OCC(CC)CCCC)n1 (stereo not drawn)
inactive: dose: 25.6 mg/kg/injection, schedule: Q04DX002 (ip), vehicle: saline with Tween-80 91 % of control | dose: 64.0 mg/kg/injection, schedule: Q04DX002 (ip), vehicle: saline with Tween-80 91 % of control | [1] 88 % of control | dose: 160.0 mg/kg/injection, schedule: Q04DX002 (ip), vehicle: saline with Tween-80 91 % of control | [2] 92 % of control | [3] 87 % of control | [4] 87 % of control

O=C(CO)NCO
inactive: [5] 103 % of control | [6] 101 % of control | [7] 101 % of control

CCOC(=O)c1nc[nH]c1C
inactive: [8] 103 % of control | [9] 98 % of control and 101 % of control | [10] 103 % of control | [11] 100 % of control and 120 % of control | [12] 100 % of control and 103 % of control | [13] 103 % of control | [14] 103 % of control and 119 % of control | [15] 103 % of control | dose: 400.0 mg/kg/injection, schedule: Q04DX003 (ip), vehicle: Klucel (hydroxypropylcellulose) (HPC) 98 % of control

CCN(CC)CCOc1ccc(OC)cc1
inactive: dose: 25.0 mg/kg/injection, schedule: Q04DX003 (ip), vehicle: saline 91 % of control | [16] 102 % of control | dose: 50.0 mg/kg/injection, schedule: Q04DX003 (ip), vehicle: saline 115 % of control | [17] 111 % of control | [18] 104 % of control and 121 % of control

CCCCCCC/C=N/N=C/CCCCCCC
inactive: dose: 100.0 mg/kg/injection, schedule: Q01DX009 (ip), vehicle: other 97 % of control | dose: 100.0 mg/kg/injection, schedule: Q04DX003 (ip), vehicle: other 97 % of control | dose: 200.0 mg/kg/injection, schedule: Q01DX009 (ip), vehicle: other 100 % of control | dose: 200.0 mg/kg/injection, schedule: Q04DX003 (ip), vehicle: other 97 % of control | dose: 400.0 mg/kg/injection, schedule: Q01DX009 (ip), vehicle: other 112 % of control | dose: 400.0 mg/kg/injection, schedule: Q04DX003 (ip), vehicle: other 109 % of control

O=C(N/N=C/c1ccc(O)cc1O)c1ccc(O)cc1
inactive: [9] 92 % of control | [12] 103 % of control | [15] 103 % of control

O=C1NC2CC=CCC12 (stereo not drawn)
inactive: dose: 100.0 mg/kg/injection, schedule: Q01DX009 (ip), vehicle: saline with Tween-80 91 % of control | [18] 101 % of control | dose: 200.0 mg/kg/injection, schedule: Q01DX009 (ip), vehicle: saline with Tween-80 89 % of control | [19] 101 % of control | dose: 400.0 mg/kg/injection, schedule: Q01DX009 (ip), vehicle: saline with Tween-80 89 % of control | [20] 94 % of control

CC(=O)Nc1ccc(S(=O)(=O)Oc2ccccc2)cc1
inactive: dose: 100.0 mg/kg/injection, schedule: Q04DX003 (ip), vehicle: alcohol 98 % of control | dose: 200.0 mg/kg/injection, schedule: Q04DX003 (ip), vehicle: alcohol 98 % of control | dose: 400.0 mg/kg/injection, schedule: Q04DX003 (ip), vehicle: alcohol 108 % of control

Nc1ccc(-c2ccc(Br)cc2)cc1
inactive: [21] 101 % of control | [22] 100 % of control

CCOC(=O)c1c(-c2ccccc2)csc1NC(=O)c1ccccc1
inactive: dose: 50.0 mg/kg/injection, schedule: Q04DX003 (ip), vehicle: saline with Tween-80 92 % of control | [1] 90 % of control | [2] 89 % of control | [4] 90 % of control

CCOc1ccc(N=O)c(O)c1
inactive: [21] 101 % of control | [22] 90 % of control

CN1CCC(OC(=O)C(O)C2CCCCC2)CC1 (stereo not drawn)
inactive: [10] 104 % of control | [13] 103 % of control

CC(=O)c1c[nH]c2ccccc12
inactive: [17] 101 % of control | [23] 108 % of control | [24] 95 % of control

O=C1OC(n2ccc3ccccc32)c2ccccc21 (stereo not drawn)
inactive: [5] 105 % of control | [18] 89 % of control | [6] 96 % of control | [19] 92 % of control | [7] 102 % of control | [20] 89 % of control

Cc1cn(C2CC(F)C(CO)O2)c(=O)[nH]c1=O (stereo not drawn)
inactive: dose: 12.5 mg/kg/injection, schedule: Q01DX009 (ip), vehicle: saline 108 % of control | dose: 25.0 mg/kg/injection, schedule: Q01DX009 (ip), vehicle: saline 102 % of control | [16] 117 % of control | dose: 78.0 mg/kg/injection, schedule: Q01DX009 (ip), vehicle: saline 107 % of control | [17] 121 % of control | dose: 130.0 mg/kg/injection, schedule: Q01DX009 (ip), vehicle: saline 115 % of control | dose: 360.0 mg/kg/injection, schedule: Q01DX009 (ip), vehicle: saline 109 % of control

CCCCCCCCCCC1CCCC1
inactive: dose: 100.0 mg/kg/injection, schedule: Q04DX002 (ip), vehicle: saline with Tween-80 94 % of control | dose: 200.0 mg/kg/injection, schedule: Q04DX002 (ip), vehicle: saline with Tween-80 98 % of control | [3] 94 % of control

CCN(CC)CCCC(C)Nc1cc(N)nc2nc(-c3ccc(Br)cc3)cnc12 (stereo not drawn)
inactive: dose: 75.0 mg/kg/injection, schedule: Q01DX001 (ip), vehicle: saline 106 % of control | dose: 150.0 mg/kg/injection, schedule: Q01DX001 (ip), vehicle: saline 101 % of control

Nc1nc(N)c2cc(N3CCCC3c3ccc(Cl)c(Cl)c3)ccc2n1 (stereo not drawn)
inactive: dose: 1.56 mg/kg/injection, schedule: Q01DX009 (ip), vehicle: water 103 % of control | dose: 3.12 mg/kg/injection, schedule: Q01DX009 (ip), vehicle: water 110 % of control | dose: 6.25 mg/kg/injection, schedule: Q01DX009 (ip), vehicle: water 98 % of control

CCCCNC(=O)Nc1ccc(C)cc1
inactive: dose: 100.0 mg/kg/injection, schedule: Q01DX001 (ip), vehicle: carboxymethylcellulose (CMC) 100 % of control | dose: 200.0 mg/kg/injection, schedule: Q01DX001 (ip), vehicle: carboxymethylcellulose (CMC) 103 % of control | dose: 400.0 mg/kg/injection, schedule: Q01DX001 (ip), vehicle: carboxymethylcellulose (CMC) 97 % of control

COc1cc(/C=N/Nc2ccc([N+](=O)[O-])cc2)cc(OC)c1OC
inactive: [1] 86 % of control | [2] 89 % of control | [4] 86 % of control

CSc1nc(NN)cc(-c2ccccc2)n1
inactive: dose: 100.0 mg/kg/injection, schedule: Q01DX Z (ip), vehicle: methylcellulose (MC) 98 % of control | dose: 200.0 mg/kg/injection, schedule: Q01DX Z (ip), vehicle: methylcellulose (MC) 90 % of control

Nc1ccc(C(=O)Nc2cccc(S(=O)(=O)F)c2)cc1
inactive: [5] 107 % of control | [6] 106 % of control | [7] 90 % of control

OC1C2COc3nc4ccccc4n3C(O2)C1O (stereo not drawn)
inactive: [5] 97 % of control | [6] 95 % of control

Clc1c(Cl)c(/C=N/Nc2ccccc2)c(Cl)c(Cl)c1/C=N\Nc1ccccc1
inactive: dose: 50.0 mg/kg/injection, schedule: Q01DX001 (ip), vehicle: saline 101 % of control | [5] 95 % of control | [17] 98 % of control | [6] 92 % of control | [23] 96 % of control | [7] 95 % of control | [24] 96 % of control

COC(=O)C1CC(=O)c2ccc(OC)cc21 (stereo not drawn)
inactive: dose: 100.0 mg/kg/injection, schedule: Q01DX001 (ip), vehicle: Klucel (hydroxypropylcellulose) (HPC) 102 % of control | dose: 200.0 mg/kg/injection, schedule: Q01DX001 (ip), vehicle: Klucel (hydroxypropylcellulose) (HPC) 92 % of control | dose: 400.0 mg/kg/injection, schedule: Q01DX001 (ip), vehicle: Klucel (hydroxypropylcellulose) (HPC) 100 % of control

CCOC(=O)C/C(=N\NC(=O)c1ccccc1O)C(=O)OCC
inactive: dose: 50.0 mg/kg/injection, schedule: Q01DX009 (ip), vehicle: Klucel (hydroxypropylcellulose) (HPC) 101 % of control | [8] 107 % of control | [11] 102 % of control | [14] 101 % of control
